Assay results: PubChem BioAssay AID511

Biological target: Arf-GAP with GTPase, ANK repeat and PH domain-containing protein 2 (Homo sapiens) (UniProt Q99490)
Test: CENTG1 binders by thermal stabilization, biophysical, DSF, SYPRO orange, recombinant protein (AID 511)
Settings: at 50000 µM, protein 4.5 µM, buffer 100 mM HEPES, pH 7.5, NaCl 150 mM, hits give high values

Arf-GAP with GTPase, ANK repeat and PH domain-containing protein 2 (Homo sapiens), sequence (Q99490 whole entry, looked up, the tested form may be a part): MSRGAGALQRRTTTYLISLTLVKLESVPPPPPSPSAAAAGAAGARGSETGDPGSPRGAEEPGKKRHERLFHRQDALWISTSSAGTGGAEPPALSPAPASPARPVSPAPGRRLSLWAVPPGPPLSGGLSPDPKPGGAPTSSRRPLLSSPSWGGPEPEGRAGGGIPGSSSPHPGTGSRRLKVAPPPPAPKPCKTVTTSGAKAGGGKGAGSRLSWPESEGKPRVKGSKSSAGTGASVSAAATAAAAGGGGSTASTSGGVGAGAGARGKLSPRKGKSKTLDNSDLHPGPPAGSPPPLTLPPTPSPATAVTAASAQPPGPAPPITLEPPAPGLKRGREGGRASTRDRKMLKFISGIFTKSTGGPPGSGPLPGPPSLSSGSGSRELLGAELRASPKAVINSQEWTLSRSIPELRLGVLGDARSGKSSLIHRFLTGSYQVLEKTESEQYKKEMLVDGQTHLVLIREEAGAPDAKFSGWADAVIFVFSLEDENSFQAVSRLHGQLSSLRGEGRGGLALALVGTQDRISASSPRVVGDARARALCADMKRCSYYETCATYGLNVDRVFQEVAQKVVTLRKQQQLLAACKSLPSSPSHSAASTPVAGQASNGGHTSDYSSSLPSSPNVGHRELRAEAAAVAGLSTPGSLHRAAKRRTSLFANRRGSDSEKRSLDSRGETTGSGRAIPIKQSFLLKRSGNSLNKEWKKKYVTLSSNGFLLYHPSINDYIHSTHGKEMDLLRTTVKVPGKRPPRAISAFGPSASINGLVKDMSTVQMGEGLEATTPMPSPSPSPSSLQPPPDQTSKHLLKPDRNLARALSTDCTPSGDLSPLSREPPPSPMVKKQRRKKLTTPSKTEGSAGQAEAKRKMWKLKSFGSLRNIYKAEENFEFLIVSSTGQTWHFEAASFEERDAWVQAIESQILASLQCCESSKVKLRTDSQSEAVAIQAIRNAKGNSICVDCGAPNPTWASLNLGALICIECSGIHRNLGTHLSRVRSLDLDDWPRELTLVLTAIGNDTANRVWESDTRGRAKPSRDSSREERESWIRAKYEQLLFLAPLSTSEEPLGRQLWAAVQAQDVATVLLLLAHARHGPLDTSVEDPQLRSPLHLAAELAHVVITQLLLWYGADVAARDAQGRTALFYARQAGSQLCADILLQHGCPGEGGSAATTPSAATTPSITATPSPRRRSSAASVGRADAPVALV

## NC(CS)C(=O)O (stereo unspecified)
  Tm shift: 3.9 Celsius
